# Measured values: US20200223889A1, “Bicyclic Compounds Capable of Binding to Melanocortin 4 Receptor” (Novo Nordisk A/S, priority 2017, published 2020)
# Like-named read-outs stand apart in the source and are kept apart here. Positions of bridges follow the written chain, without caps; N, C: chain ends. Non-standard residues stand in square brackets, D forms with d. Residues, ends and D or L forms follow the SMILES beside them. Thz = O=C(O)[C@@H]1CSCN1
# How the values were obtained:
# human MC4R [1] = target: T1, human MC4R (Homo sapiens, UniProt P32245); assay: 125NDP-α-MSH competitive binding to membranes of BHK cells expressing human MC4 receptor (filtration assay)
# T1 construct: expressed in transfected cells
# T1 sequence (P32245 whole entry): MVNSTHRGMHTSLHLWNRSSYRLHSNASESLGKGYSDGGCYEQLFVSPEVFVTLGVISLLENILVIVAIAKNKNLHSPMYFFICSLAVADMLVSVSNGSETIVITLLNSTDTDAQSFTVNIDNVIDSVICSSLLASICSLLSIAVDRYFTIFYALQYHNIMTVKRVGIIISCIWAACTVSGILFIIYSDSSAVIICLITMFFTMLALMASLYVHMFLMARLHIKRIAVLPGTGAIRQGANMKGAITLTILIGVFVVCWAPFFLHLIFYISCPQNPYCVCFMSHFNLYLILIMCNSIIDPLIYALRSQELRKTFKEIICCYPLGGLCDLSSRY
# Summary of the method: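 Displacement of ^125NDP-α-MSH (apx. […] final) was measured by filtration after 2 h at 25 °C, using diluted membranes of stably transfected BHK cells in pH 7.0 HEPES buffer. Compounds spanned 1 μM to 0.001 nM; binding curves were analysed by non-linear regression.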
# [2] = In vivo acute food intake model (BioDAQ) in C57BL/6J male mice; conditions: single subcutaneous dose 1 mg/kg, cumulative food intake
# Method: The MC4R system is central to appetite regulation and agonists are known inhibit food intake. In order to screen compounds in a relevant in vivo model, efficacy was assessed by determining the effect of the compound on reducing food intake acutely in mice.
# All animal protocols were approved by an Institutional Animal Care and Use Committee and Ethical Review Committee of Novo Nordisk. Animals were housed according to Novo Nordisk rodent housing standards, and were given ad libitum access to food and water under controlled lighting (12 h:12 h light/dark cycle; lights off 11:00-23:00), temperature (23±2° C.) and relative humidity (50±20%) conditions. For each acute food intake study C57BL/6J male mice (25-30 grams body weight) were acclimated for two weeks to the appropriate light cycle and to single-housing (one mouse per cage) in cages linked to a BioDAQ automated food intake system (Research Diets Inc., New Brunswick, N.J. USA). The animals were also acclimated to new food (Research Diets 12450B, 10% kcal fat) during this time.
# The BioDAQ is a computer automated scientific instrument for Biological Data Acquisition of food intake in rodents and measures food intake from each cage every 15 minutes. A total of 32 animals can be accommodated in the system per study, therefore, animals were randomized into 4 groups of n=8 for each study. […] Animals were fasted ˜4 hr prior to dosing. Vehicle (10 mM phosphate; 140 mM sodium chloride) or compound was dosed at a volume of 10 ml per kg subcutaneously approximately 20 minutes prior to the start of the dark cycle (compound chem no. and dosages are indicated in table 2 below). After dosing, food intake was recorded for approximately 24 hours.
# The inhibitory effect of compounds on food intake was generally well-correlated with in vitro binding affinity on the human MC4 receptor and with plasma stability of the compound. Most studies were conducted as dose response studies with vehicle and the compound at 3 doses (0.3, 1 and 3 mg/kg). Some studies were done for the purpose of dose-range finding, while others were done to comparatively assess the effect of 3 compounds at the same dose. Maximal effects on food intake occurred within the first 1-5 hours post-dose. The comparative effect of compounds across studies on food intake was assessed by normalizing measurements as % effect on cumulative food intake after a single subcutaneous dose, relative to vehicle. Results are reported in Table 2 as % effect on food intake at 3 hours post dose.
# human MC4R [3] = target: T1, human MC4R; assay: Functional cAMP assay (CisBio HTRF) in BHK cells expressing human MC4R; type: cell-based; conditions: for MC1R/MC4R cAMP EC50 ratio: MC1R cAMP EC50 divided by MC4R cAMP EC50
# Summary of the method: (§1)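 Compound working solutions, 10-fold dilutions from 2 μM at twice final strength, in buffer containing 1 mM IBMX, were incubated 30 min at 25 °C with BHK cells stably carrying human MC4R or MC1R. Accumulated cAMP was then detected by competitive HTRF after 1 h at 25 °C and fitted by non-linear regression.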
# human MC1R = target: T2, human MC1R (Homo sapiens, UniProt Q01726); assay: Functional cAMP assay (CisBio HTRF) in BHK cells expressing human MC1R; type: cell-based
# T2 construct: expressed in transfected cells
# T2 sequence (Q01726 whole entry): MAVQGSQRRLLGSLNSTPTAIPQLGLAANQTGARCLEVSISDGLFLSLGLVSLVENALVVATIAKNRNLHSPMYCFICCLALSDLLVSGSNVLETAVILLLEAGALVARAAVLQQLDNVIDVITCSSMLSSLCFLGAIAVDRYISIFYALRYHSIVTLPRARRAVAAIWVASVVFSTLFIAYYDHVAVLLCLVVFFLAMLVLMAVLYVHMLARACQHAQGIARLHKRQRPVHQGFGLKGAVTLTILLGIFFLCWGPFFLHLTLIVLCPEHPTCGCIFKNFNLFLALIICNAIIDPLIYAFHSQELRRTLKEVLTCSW
# Summary of the method: as §1
SMILES,Ki (human MC4R [1]),"% Effect on food intake at 3 hours post dose, relative to vehicle [2]",EC50 (human MC4R [3]),MC1R/MC4R cAMP EC50 ratio (human MC4R [3]),"Ki (human MC4R [1]; human MC4R, BHK cell membranes, 125NDP-α-MSH radioligand, read-out: MC4R binding Ki)","EC50 (human MC4R [3]; BHK cells expressing human MC4R, '>' = highest dose used with no response, read-out: MC4R cAMP EC50)",EC50 (human MC1R)
"C[C@@H]1NC(=O)[C@@H]2CSSC[C@H](NC(=O)[C@H](Cc3c[nH]c4ccccc34)NC(=O)[C@H](CCCCN)NC(=O)[C@H](CCCCN)NC(=O)[C@H](CCCCN)NC1=O)C(=O)N1CSC[C@H]1C(=O)N[C@@H](Cc1c[nH]cn1)C(=O)N[C@H](Cc1ccccc1)C(=O)N[C@@H](Cc1c[nH]cn1)C(=O)N[C@@H](Cc1c[nH]c3ccccc13)C(=O)N2 [Chem. 81, c[c[Cys-THAZ-His-D-Phe-His-Trp- Cys]-Ala-Lys-Lys-Lys-Trp]] (cyclo(AKKKWC[Thz]H[dF]HWC); disulfide 6-12)",0.03 nM,−72 ± 7%,0.07 nM,957,,,
"C[C@@H]1NC(=O)[C@@H]2CSSC[C@H](NC(=O)[C@H](CCCNC(=N)N)NC(=O)[C@H](CCCCN)NC(=O)[C@H](CCCCN)NC(=O)[C@H](Cc3c[nH]cn3)NC1=O)C(=O)N1CCC[C@H]1C(=O)N[C@@H](Cc1c[nH]cn1)C(=O)N[C@H](Cc1ccccc1)C(=O)N[C@@H](Cc1c[nH]cn1)C(=O)N[C@@H](Cc1c[nH]c3ccccc13)C(=O)N2 [Chem. 96, c[c[Cys-Pro-His-D-Phe-His-Trp-Cys]- Ala-His-Lys-Lys-Arg]] (cyclo(AHKKRCPH[dF]HWC); disulfide 6-12)",,−17 ± 14%,,1442,0.04 nM,0.04 nM,
"C[C@@H]1NC(=O)[C@H](CCCCN)NC(=O)[C@H](CCCCN)NC(=O)[C@H](C)NC(=O)[C@@H]2CSSC[C@H](NC(=O)[C@H](Cc3c[nH]c4ccccc34)NC1=O)C(=O)N1CSC[C@H]1C(=O)N[C@@H](Cc1c[nH]cn1)C(=O)N[C@H](Cc1ccccc1)C(=O)N[C@@H](Cc1c[nH]cn1)C(=O)N[C@@H](Cc1c[nH]c3ccccc13)C(=O)N2 [Chem. 110, c[c[Cys-THAZ-His-D-Phe-His-Trp- Cys]-Ala-Lys-Lys-Ala-Trp]] (cyclo(AKKAWC[Thz]H[dF]HWC); disulfide 6-12)",0.09 nM,−26 ± 15%,0.05 nM,1266,,,
"C[C@@H]1NC(=O)[C@@H]2CSSC[C@H](NC(=O)[C@H](Cc3c[nH]c4ccccc34)NC(=O)[C@H](CCCNC(=N)N)NC(=O)[C@@H](Cc3ccccc3)NC(=O)[C@H](Cc3c[nH]cn3)NC1=O)C(=O)N[C@@H](C)C(=O)N[C@@H](Cc1c[nH]cn1)C(=O)N[C@H](Cc1ccccc1)C(=O)N[C@@H](CCCNC(=N)N)C(=O)N[C@@H](Cc1c[nH]c3ccccc13)C(=O)N2 [Chem. 111, c[c[Cys-Ala-His-D-Phe-Arg-Trp-Cys]- Ala-His-D-Phe-Arg-Trp]]",0.04 nM,−63 ± 4%,0.01 nM,31,,,0.31 nM
